Measured values taken from patent US20230000870A1, “METHODS OF TREATING CANCER IN BIOMARKER-IDENTIFIED PATIENTS WITH INHIBITORS OF CYCLIN-DEPENDENT KINASE 7 (CDK7)” (Syros Pharmaceuticals, Inc., priority 2019, published 2023).

Assays:
CDK2/Cyclin E1 complex = CDK2/Cyclin E1 complex (Homo sapiens, UniProt P24941); assay: CDK2 kinase inhibition assay (Caliper/LabChip EZ Reader); format: biochemical; conditions: CDK2/Cyclin E1 0.5 nM, ATP 2 mM, 35 min at 27° C.
Outline: (§1)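 Caliper/LabChip mobility-shift kinase assays at 27° C. CDK9/Cyclin T1 8 nM with 2 μM 5-FAM-CDK9tide, 10 mM MgCl2, 15 min; CDK12/Cyclin K 50 nM with 5-FAM-CDK9tide 2 μM, 2 mM MgCl2, 3 hr; CDK2/Cyclin E1 0.5 nM with 5-FAM-CDK7tide 2 μM, 2 mM MgCl2, 35 min; CDK7 35 min.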

[1] = target: CDK7/Cyclin H/MAT1 complex (Homo sapiens, UniProt P50613); assay: CDK7 kinase inhibition assay (Caliper/LabChip EZ Reader); format: biochemical; conditions: CDK7/Cyclin H/MAT1 6 nM, ATP 2 mM, 35 min at 27° C.
Outline: as §1

[2] = target: T1, CDK12 (aa686-1082)/Cyclin K complex (Homo sapiens, UniProt Q9NYV4); assay: CDK12 kinase inhibition assay (Caliper/LabChip EZ Reader); format: biochemical; conditions: CDK12 (aa686-1082)/Cyclin K 50 nM, ATP 2 mM, 3 hr at 27° C.
T1 construct: CDK12 (aa686-1082)/Cyclin K complex
Outline: as §1

HCC70 cells = assay: Inhibition of proliferation of HCC70 cells (CyQUANT Direct, 72 hour); format: cell-based, human; conditions: read-out: Inhibition of Proliferation of HCC70 Cells (calculated IC50)
Protocol: HCC70 cells: HCC70 cells are a cell line derived from human triple negative breast cancer. Representative compounds of the invention were tested at different concentrations (from 4 μM to […]; 0.5 log serial dilutions) for their ability to inhibit the proliferation of HCC70 cells. Known CDK inhibitors dinaciclib or N-((1S,3R)-3-((5-chloro-4-(1H-indol-3-yl) pyrimidin-2-yl)amino)cyclohexyl)-5-((E)-4-(dimethylamino)but-2-enamido)picolinamide and triptolide were used as positive controls. Cells were grown in ATCC-formulated RPMI-1640 Medium (ATCC 30-2001)+10% FBS. The cells were cultured at 37° C. in a humidified chamber in the presence of 5% CO2. Proliferation assays were conducted over a 72 hour time period. CyQUANT® Direct Cell Proliferation Assay (Life Technologies, Chicago, Ill. USA) was used to assess the anti-proliferative effects of the compounds following manufacturer's directions and utilizing the reagents supplied with the CyQUANT® Direct Cell kit.

CDK9/Cyclin T1 complex = CDK9/Cyclin T1 complex (Homo sapiens, UniProt P50750); assay: CDK9 kinase inhibition assay (Caliper/LabChip EZ Reader); format: biochemical; conditions: CDK9/Cyclin T1 8 nM, ATP 2 mM, 15 min at 27° C.
Outline: as §1

Chain of CDK9/Cyclin T1 complex (P50750 whole entry): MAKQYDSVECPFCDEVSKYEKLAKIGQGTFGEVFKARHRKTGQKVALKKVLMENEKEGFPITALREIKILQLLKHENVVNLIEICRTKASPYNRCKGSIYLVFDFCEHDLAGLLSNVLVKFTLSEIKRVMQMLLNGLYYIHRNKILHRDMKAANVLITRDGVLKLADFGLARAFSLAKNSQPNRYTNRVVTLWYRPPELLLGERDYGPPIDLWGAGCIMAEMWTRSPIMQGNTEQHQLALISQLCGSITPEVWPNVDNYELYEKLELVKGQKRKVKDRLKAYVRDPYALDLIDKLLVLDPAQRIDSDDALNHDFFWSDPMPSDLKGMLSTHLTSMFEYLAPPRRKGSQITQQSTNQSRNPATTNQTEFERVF
Chain of CDK9/Cyclin T1 complex (O60563 whole entry partner): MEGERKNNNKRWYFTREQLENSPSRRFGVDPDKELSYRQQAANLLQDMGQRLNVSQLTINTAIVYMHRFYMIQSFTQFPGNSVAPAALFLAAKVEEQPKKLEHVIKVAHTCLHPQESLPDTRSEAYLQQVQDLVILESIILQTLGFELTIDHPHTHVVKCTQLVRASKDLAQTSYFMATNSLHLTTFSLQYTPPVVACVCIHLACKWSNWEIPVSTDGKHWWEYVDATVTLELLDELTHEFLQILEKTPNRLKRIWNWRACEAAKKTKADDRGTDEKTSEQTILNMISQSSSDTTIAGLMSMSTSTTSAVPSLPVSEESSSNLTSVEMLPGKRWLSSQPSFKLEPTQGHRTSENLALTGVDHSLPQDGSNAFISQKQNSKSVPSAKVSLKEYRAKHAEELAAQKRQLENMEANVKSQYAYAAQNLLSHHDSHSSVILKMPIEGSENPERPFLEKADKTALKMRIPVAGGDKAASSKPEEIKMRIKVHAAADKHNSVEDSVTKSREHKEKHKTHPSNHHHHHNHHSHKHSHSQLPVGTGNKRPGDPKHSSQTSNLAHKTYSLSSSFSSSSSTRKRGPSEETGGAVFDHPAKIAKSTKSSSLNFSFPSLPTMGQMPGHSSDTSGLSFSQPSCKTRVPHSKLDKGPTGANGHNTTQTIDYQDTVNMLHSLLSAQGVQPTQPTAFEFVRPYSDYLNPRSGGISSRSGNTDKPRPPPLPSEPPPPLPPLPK
Chain of CDK7/Cyclin H/MAT1 complex (P50613 whole entry): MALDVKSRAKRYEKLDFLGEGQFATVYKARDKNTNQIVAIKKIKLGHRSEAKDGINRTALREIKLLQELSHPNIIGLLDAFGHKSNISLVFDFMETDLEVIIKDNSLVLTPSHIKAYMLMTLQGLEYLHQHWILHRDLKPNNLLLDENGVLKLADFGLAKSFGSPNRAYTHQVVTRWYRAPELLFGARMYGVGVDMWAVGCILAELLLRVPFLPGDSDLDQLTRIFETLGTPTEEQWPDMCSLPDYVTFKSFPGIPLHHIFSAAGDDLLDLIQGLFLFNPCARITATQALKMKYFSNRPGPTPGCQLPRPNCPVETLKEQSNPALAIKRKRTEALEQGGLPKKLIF
Chain of CDK7/Cyclin H/MAT1 complex (P51946 whole entry partner): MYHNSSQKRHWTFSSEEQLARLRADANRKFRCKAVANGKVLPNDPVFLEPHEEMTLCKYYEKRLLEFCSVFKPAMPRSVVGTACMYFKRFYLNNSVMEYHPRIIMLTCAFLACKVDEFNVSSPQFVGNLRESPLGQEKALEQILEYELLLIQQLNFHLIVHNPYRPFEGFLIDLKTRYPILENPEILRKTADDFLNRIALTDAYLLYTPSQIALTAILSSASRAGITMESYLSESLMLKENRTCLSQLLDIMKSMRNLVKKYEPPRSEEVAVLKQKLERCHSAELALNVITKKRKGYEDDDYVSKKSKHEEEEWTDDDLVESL
Chain of CDK7/Cyclin H/MAT1 complex (P51948 whole entry partner): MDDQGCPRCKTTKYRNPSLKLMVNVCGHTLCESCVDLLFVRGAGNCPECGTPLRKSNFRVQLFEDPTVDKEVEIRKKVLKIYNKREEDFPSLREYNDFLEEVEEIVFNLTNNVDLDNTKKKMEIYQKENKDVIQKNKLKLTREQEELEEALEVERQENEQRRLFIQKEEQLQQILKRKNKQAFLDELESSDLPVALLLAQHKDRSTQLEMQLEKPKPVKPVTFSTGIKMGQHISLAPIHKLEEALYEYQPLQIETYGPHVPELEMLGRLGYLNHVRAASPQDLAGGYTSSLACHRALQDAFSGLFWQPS
T1 sequence (Q9NYV4 686-1082): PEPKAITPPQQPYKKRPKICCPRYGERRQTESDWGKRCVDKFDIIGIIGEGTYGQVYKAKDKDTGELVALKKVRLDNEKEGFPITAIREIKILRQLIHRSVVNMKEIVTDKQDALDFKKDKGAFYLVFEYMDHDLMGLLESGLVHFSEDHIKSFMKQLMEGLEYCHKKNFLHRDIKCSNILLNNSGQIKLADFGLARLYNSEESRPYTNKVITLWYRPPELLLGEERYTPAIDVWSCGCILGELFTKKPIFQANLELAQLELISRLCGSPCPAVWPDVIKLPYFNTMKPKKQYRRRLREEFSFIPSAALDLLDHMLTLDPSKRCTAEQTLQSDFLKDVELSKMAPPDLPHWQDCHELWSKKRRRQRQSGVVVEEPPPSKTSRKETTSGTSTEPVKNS
T1 sequence (O75909 whole entry partner, the tested form may be a part): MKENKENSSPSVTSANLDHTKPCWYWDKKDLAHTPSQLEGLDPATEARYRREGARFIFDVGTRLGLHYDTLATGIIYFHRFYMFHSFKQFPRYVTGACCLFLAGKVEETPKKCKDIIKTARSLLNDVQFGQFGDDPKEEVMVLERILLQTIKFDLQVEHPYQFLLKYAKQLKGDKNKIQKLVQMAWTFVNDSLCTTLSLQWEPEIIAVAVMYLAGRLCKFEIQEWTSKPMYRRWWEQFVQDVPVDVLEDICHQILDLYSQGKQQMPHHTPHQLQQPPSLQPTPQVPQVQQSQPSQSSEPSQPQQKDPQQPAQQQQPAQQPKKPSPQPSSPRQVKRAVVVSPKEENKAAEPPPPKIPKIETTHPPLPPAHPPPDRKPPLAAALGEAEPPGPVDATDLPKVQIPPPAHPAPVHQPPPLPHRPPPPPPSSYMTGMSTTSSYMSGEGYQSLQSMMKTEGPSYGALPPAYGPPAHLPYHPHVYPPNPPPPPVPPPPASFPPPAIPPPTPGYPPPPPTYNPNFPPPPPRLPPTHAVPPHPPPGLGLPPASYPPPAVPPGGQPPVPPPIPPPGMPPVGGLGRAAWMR

Structure (SMILES)	IC50 (CDK2/Cyclin E1 complex) [µM]	IC50 [1] [µM]	IC50 [2] [µM]	IC50 (HCC70 cells) [µM]	IC50 (CDK9/Cyclin T1 complex) [µM]
CCP(=O)(CC)c1ccc2c(-c3nc(NC4CCCNC4)ncc3C(F)(F)F)c[nH]c2c1 (centres unmarked) [Compound 379]	≥ 5	0.02 to 0.2	≥ 5	1 to 5	≥ 5
N#Cc1ccc2c(-c3nc(NC4CCCNC4)ncc3OC(F)F)c[nH]c2c1 (centres unmarked) [Compound 301]	≥ 5	0.02 to 0.2	≥ 5	1 to 5	≥ 5
FC(F)(F)c1cnc(N[C@H]2CCCNC2)nc1-c1c[nH]c2cc(/C=C/c3ccccc3)ccc12 [Compound 317]		0.02 to 0.2	0.2 to 5	1 to 5	
N#Cc1ccc2c(-c3nc(N[C@@H]4CNC[C@H](O)C4)ncc3C(F)(F)F)c[nH]c2c1 [Compound 370]	≥ 5	0.02 to 0.2	0.2 to 5	0.1 to 1	≥ 5
Nc1ncc2cccc(-c3ccc4c(-c5nc(NC6CCCNC6)ncc5C(F)(F)F)c[nH]c4c3)c2n1 (centres unmarked) [Compound 322]		< 0.02	0.2 to 5	0.1 to 1	
CCC1(O)CCN(C(=O)c2ccc3c(-c4nc(NC5CCCNC5)ncc4C(F)(F)F)c[nH]c3c2)C1 (centres unmarked) [Compound 309]	≥ 5	0.02 to 0.2	0.2 to 5	1 to 5	≥ 5
CCOc1ccccc1-c1ccc2c(-c3nc(NC4CCCNC4)ncc3C(F)(F)F)c[nH]c2c1 (centres unmarked) [Compound 327]		0.02 to 0.2	0.2 to 5	0.1 to 1	
CC(C)(C)OC(=O)N1CCC[C@H](Nc2ncc(C(F)(F)F)c(-c3c[nH]c4cc(P(C)(C)=O)ccc34)n2)C1 [Compound 352]	≥ 5	≥ 5	≥ 5	1 to 5	≥ 5
FC(F)(F)c1cnc(N[C@H]2CCCNC2)nc1-c1c[nH]c2cc(-c3cccc(Oc4ccccc4)c3)ccc12 [Compound 341]	≥ 5	0.2 to 5	≥ 5	1 to 5	≥ 5
FC(F)(F)c1cnc(N[C@H]2CCCNC2)nc1-c1c[nH]c2cc(-c3ccc4ccncc4c3)ccc12 [Compound 325]		0.02 to 0.2	0.2 to 5	0.1 to 1	
CC1CCNCC1Nc1ncc(C(F)(F)F)c(-c2c[nH]c3ccccc23)n1 (centres unmarked) [Compound 373]	≥ 5	0.02 to 0.2	≥ 5	1 to 5	≥ 5
CC1(C)CCC(Nc2ncc(C(F)(F)F)c(-c3c[nH]c4cc(C#N)ccc34)n2)CN1 (centres unmarked) [Compound 350]	≥ 5	0.02 to 0.2	0.2 to 5	0.1 to 1	≥ 5
COCn1cc(-c2nc(NC3CCCNC3)ncc2C(F)(F)F)c2cccc(C#N)c21 (centres unmarked) [Compound 295]	≥ 5	0.02 to 0.2	≥ 5	1 to 5	≥ 5
Cc1noc(C)c1-c1ccc2c(-c3nc(N[C@H]4CCCNC4)ncc3C(F)(F)F)c[nH]c2c1 [Compound 330]	0.2 to 5	< 0.02	0.2 to 5	< 0.1	0.2 to 5
Fc1cncc(-c2ccc3c(-c4nc(NC5CCCNC5)ncc4C(F)(F)F)c[nH]c3c2)c1 (centres unmarked) [Compound 335]				0.1 to 1	
N#CC1CCN(C(=O)c2ccc3c(-c4nc(NC5CCCNC5)ncc4C(F)(F)F)c[nH]c3c2)C1 (centres unmarked) [Compound 293]	0.2 to 5	< 0.02	0.2 to 5	0.1 to 1	0.2 to 5

Structure (SMILES)	IC50 (CDK2/Cyclin E1 complex) [µM]	IC50 [1] [µM]	IC50 [2] [µM]	IC50 (HCC70 cells) [µM]	IC50 (CDK9/Cyclin T1 complex) [µM]
N#Cc1ccc2c(-c3nc(N[C@@H]4CCC5(CCC5)NC4)ncc3C(F)(F)F)c[nH]c2c1 [Compound 377]	≥ 5	< 0.02	0.2 to 5	0.1 to 1	0.2 to 5
N#Cc1ccc2c(-c3nc(N[C@H]4CCCNC4)ncc3SC(F)F)c[nH]c2c1 [Compound 361]	≥ 5	0.02 to 0.2	0.2 to 5	0.1 to 1	0.2 to 5
N#Cc1ccc2c(-c3nc(NC4CNCC(F)C4)ncc3C(F)(F)F)c[nH]c2c1 (centres unmarked) [Compound 368]	≥ 5	0.02 to 0.2	0.2 to 5	1 to 5	≥ 5
O=S(=O)(CF)c1ccc2c(-c3nc(NC4CCCNC4)ncc3C(F)(F)F)c[nH]c2c1 (centres unmarked) [Compound 365]	0.2 to 5	< 0.02	0.2 to 5	0.1 to 1	0.2 to 5
O=C(O)c1ccc2c(-c3nc(NC4CCCNC4)ncc3C(F)(F)F)c[nH]c2c1 (centres unmarked) [Compound 306]	0.2 to 5	0.02 to 0.2	0.2 to 5	0.1 to 1	≥ 5
OCc1ncccc1-c1ccc2c(-c3nc(NC4CCCNC4)ncc3C(F)(F)F)c[nH]c2c1 (centres unmarked) [Compound 323]	0.2 to 5	< 0.02	0.2 to 5	0.1 to 1	≥ 5
FC(F)(F)c1cc2[nH]cc(-c3ccc4c(-c5nc(N[C@H]6CCCNC6)ncc5C(F)(F)F)c[nH]c4c3)c2cn1 [Compound 319]		0.02 to 0.2	0.2 to 5	1 to 5	
COC1CCN(C(=O)c2ccc3c(-c4nc(NC5CCCNC5)ncc4C(F)(F)F)c[nH]c3c2)C1 (centres unmarked) [Compound 281]	0.2 to 5	< 0.02	0.2 to 5	0.1 to 1	0.2 to 5
Cn1cc(-c2ccc3c(-c4nc(N[C@H]5CCCNC5)ncc4C(F)(F)F)c[nH]c3c2)c2cnc(C(F)(F)F)cc21 [Compound 320]		0.02 to 0.2	0.2 to 5	1 to 5	
Cn1ncc2ccc(-c3ccc4c(-c5nc(NC6CCCNC6)ncc5C(F)(F)F)c[nH]c4c3)cc21 (centres unmarked) [Compound 337]		0.02 to 0.2	0.2 to 5	0.1 to 1	
Nc1nc2c(-c3ccc4c(-c5nc(NC6CCCNC6)ncc5C(F)(F)F)c[nH]c4c3)cccc2s1 (centres unmarked) [Compound 312]		0.02 to 0.2	0.2 to 5	0.1 to 1	
CCc1cnc(NC2CCCNC2)nc1-c1c[nH]c2c(S(C)(=O)=O)cccc12 (centres unmarked) [Compound 269]				0.1 to 1	
OCCc1cccc(-c2ccc3c(-c4nc(NC5CCCNC5)ncc4C(F)(F)F)c[nH]c3c2)c1 (centres unmarked) [Compound 324]		0.02 to 0.2	0.2 to 5	0.1 to 1	
N#Cc1cc(-c2ccc3c(-c4nc(NC5CCCNC5)ncc4C(F)(F)F)c[nH]c3c2)ccc1O (centres unmarked) [Compound 315]		0.02 to 0.2	0.2 to 5	1 to 5	
NS(=O)(=O)c1ccc(-c2ccc3c(-c4nc(N[C@H]5CCCNC5)ncc4C(F)(F)F)c[nH]c3c2)cc1 [Compound 331]		0.02 to 0.2	0.2 to 5	0.1 to 1	
NS(=O)(=O)c1cccc(-c2ccc3c(-c4nc(NC5CCCNC5)ncc4C(F)(F)F)c[nH]c3c2)c1 (centres unmarked) [Compound 326]		0.02 to 0.2	0.2 to 5	0.1 to 1	
